We go through 39 compounds from US10526323B2, “Indazole and azaindazole substituted compounds as mGluR4 allosteric potentiators, compositions, and methods of treating neurological dysfunction” (Vanderbilt University, priority 2015, dated 2020).

One may read the EC50 as the midpoint of the concentration-response curve.

This assay has as its target mGluR4 (UniProt Q14833). In words: mGluR4 potentiation assay: increase in response to an EC20 concentration of agonist (species not given). As to conditions: EC50 for potentiation of mGluR4; table does not state human or rat. Type of assay: cell-based. In outline:
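Human mGluR4 was expressed in CHO cells read with a Ca2+-sensitive dye; rat mGluR4 was co-expressed with GIRK in […] read by thallium flux. Potentiation is the rise over agonist-alone response, with EC50 and maximal potentiation from non-linear fits.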
Consider `Cc1nn(CC(C)(C)C)c2ccc(Nc3n[nH]c4cccnc34)cc12` [Example 119, N-(3-methyl-1-neopentyl-1H-indazol-5-yl)-1H-pyrazolo[4,3-b]pyridin-3-amine], for which the EC50 came out at 295 nM. The value for `CCCn1nc(C)c2cc(Nc3n[nH]c4cccnc34)cnc21` [Example 264, 3-methyl-1-propyl-N-(1H-pyrazolo[4,3-b]pyridin-3-yl)pyrazolo[3,4-b]pyridin-5-amine] was 150 nM; that for `CC(C)Cn1nc(Cl)c2cc(Nc3n[nH]c4cccnc34)ccc21` [Example 274, N-(3-chloro-1-isobutyl-1H-indazol-5-yl)-1H-pyrazolo[4,3-b]pyridin-3-amine] was 3020 nM. The result for `Cn1ncc2c(Nc3n[nH]c4cccnc34)cccc21` [Example 33, N-(1-methyl-1H-indazol-4-yl)-1H-pyrazolo[4,3-b]pyridin-3-amine] reads over 10000 nM; that for `[2H]C([2H])([2H])n1nc(Cl)c2cc(Nc3n[nH]c4cccnc34)ccc21` [Example 282, N-(3-chloro-1-(methyl-d3)-1H-indazol-5-yl)-1H-pyrazolo[4,3-b]pyridin-3-amine], over 10000 nM. For `Cn1ncc2c(Cl)cc(Nc3n[nH]c4ccccc34)cc21` [Example 9, N-(4-chloro-1-methyl-1H-indazol-6-yl)-1H-indazol-3-amine], the concentration for a half-maximal effect (EC50) came to 64 nM. On to `Cn1nc(C(=O)NC2CCC2)c2ccc(Nc3n[nH]c4cccnc34)cc21` [Example 176, N-cyclobutyl-1-methyl-6-(1H-pyrazolo[4,3-b]pyridin-3-ylamino)indazole-3-carboxamide], for which the EC50 worked out at 653 nM. The value for `Cc1cc(Cn2nc(Cl)c3cc(Nc4n[nH]c5cccnc45)ccc32)on1` [Example 277, N-(3-chloro-1-((3-methylisoxazol-5-yl)methyl)-1H-indazol-5-yl)-1H-pyrazolo[4,3-b]pyridin-3-amine] was 310 nM; that for `Cn1nc(C(=O)N2CCS(=O)(=O)CC2)c2ccc(Nc3n[nH]c4cccnc34)cc21` [Example 165, (1,1-dioxo-1,4-thiazinan-4-yl)-[1-methyl-6-(1H-pyrazolo[4,3-b]pyridin-3-ylamino)indazol-3-yl]methanone] was 801 nM; that for `Cc1nnc(Cn2nc(C)c3cc(Nc4n[nH]c5cccnc45)ccc32)o1` [Example 129, N-(3-methyl-1-((5-methyl-1,3,4-oxadiazol-2-yl)methyl)-1H-indazol-5-yl)-1H-pyrazolo[4,3-b]pyridin-3-amine] was 1300 nM. The value for `c1cnc2c(Nc3cnc4cnn(CC5CCC5)c4c3)n[nH]c2n1` [Example 149, N-(1-(cyclobutylmethyl)-1H-pyrazolo[4,3-b]pyridin-6-yl)-1H-pyrazolo[3,4-b]pyrazin-3-amine] was over 10000 nM; that for `Cc1cc(Cn2cc3ncc(Nc4n[nH]c5cccnc45)cc3n2)no1` [Example 144, N-(2-((5-methylisoxazol-3-yl)methyl)-2H-pyrazolo[4,3-b]pyridin-6-yl)-1H-pyrazolo[4,3-b]pyridin-3-amine] was over 10000 nM; that for `Cn1nc(N2CC(C)(C3CC3)CC2=O)c2ccc(Nc3n[nH]c4cccnc34)cc21` (stereo not drawn) [Example 39, 1-(6-((1H-pyrazolo[4,3-b]pyridin-3-yl)amino)-1-methyl-1H-indazol-3-yl)-4-cyclopropyl-4-methylpyrrolidin-2-one] was 765 nM. As to `CC(C)n1ncc2cc(Nc3n[nH]c4cccnc34)cc(Cl)c21` [Example 58, N-(7-chloro-1-isopropyl-1H-indazol-5-yl)-1H-pyrazolo[4,3-b]pyridin-3-amine], the EC50 stood at 2290 nM.

Consider `Cc1cc(COc2nn(C)c3cc(Nc4n[nH]c5cccnc45)ccc23)no1` [Example 183, N-(1-methyl-3-((5-methylisoxazol-3-yl)methoxy)-1H-indazol-6-yl)-1H-pyrazolo[4,3-b]pyridin-3-amine], for which the EC50 was determined as 224 nM. The value for `Cc1nn(C(=O)C(F)(F)F)c2ccc(Nc3n[nH]c4nccnc34)cc12` [Example 138, 1-(5-((1H-pyrazolo[3,4-b]pyrazin-3-yl)amino)-3-methyl-1H-indazol-1-yl)-2,2,2-trifluoroethan-1-one] was 3400 nM. The value for `Cc1nn(C)c2cc(Nc3n[nH]c4cccnc34)ccc12` [Example 15, N-(1,3-dimethyl-1H-indazol-6-yl)-1H-pyrazolo[4,3-b]pyridin-3-amine] was 78 nM; that for `Cc1nn(CC2CC(C3CC3)=NO2)c2ccc(Nc3n[nH]c4cccnc34)cc12` (stereo not drawn) [Example 100, N-(1-((3-cyclopropyl-4,5-dihydroisoxazol-5-yl)methyl)-3-methyl-1H-indazol-5-yl)-1H-pyrazolo[4,3-b]pyridin-3-amine] was 258 nM. The result for `COCCn1nc(C)c2cc(Nc3n[nH]c4cccnc34)cnc21` [Example 261, 1-(2-methoxyethyl)-3-methyl-N-(1H-pyrazolo[4,3-b]pyridin-3-yl)pyrazolo[3,4-b]pyridin-5-amine] reads 2330 nM. For the compound `c1cnc2c(Nc3ccc4c(C5CC5)n[nH]c4c3)n[nH]c2c1` [Example 247, N-(3-cyclopropyl-1H-indazol-6-yl)-1H-pyrazolo[4,3-b]pyridin-3-amine], the EC50 worked out at 452 nM. The value for `c1cc2c(cnn2CC2CCC2)cc1Nc1n[nH]c2c1CCCC2` [Example 81, 1-(cyclobutylmethyl)-N-(4,5,6,7-tetrahydro-1H-indazol-3-yl)-1H-indazol-5-amine] was over 10000 nM; that for `COC(=O)Cn1nc(C)c2cc(Nc3n[nH]c4cccnc34)ccc21` [Example 118, methyl 2-(5-((1H-pyrazolo[4,3-b]pyridin-3-yl)amino)-3-methyl-1H-indazol-1-yl)acetate] was 867 nM; that for `Cn1nc(C(C)(C)O)c2ccc(Nc3n[nH]c4cccnc34)cc21` [Example 54, 2-(6-((1H-pyrazolo[4,3-b]pyridin-3-yl)amino)-1-methyl-1H-indazol-3-yl)propan-2-ol] was 865 nM. The result for `Cn1nc(C(=O)NCCS(C)(=O)=O)c2ccc(Nc3n[nH]c4cccnc34)cc21` [Example 159, 1-methyl-N-(2-methylsulfonylethyl)-6-(1H-pyrazolo[4,3-b]pyridin-3-ylamino)indazole-3-carboxamide] reads 3940 nM; that for `COc1ccc2[nH]nc(Nc3ccc4c(C5CC5)nn(C)c4c3)c2c1` [Example 47, N-(3-cyclopropyl-1-methyl-1H-indazol-6-yl)-5-methoxy-1H-indazol-3-amine], over 10000 nM. The value for `CC1CCC(=O)N1c1nn(C)c2cc(Nc3n[nH]c4cccnc34)ccc12` (stereo not drawn) [Example 42, 1-(6-((1H-pyrazolo[4,3-b]pyridin-3-yl)amino)-1-methyl-1H-indazol-3-yl)-5-methylpyrrolidin-2-one] was 4000 nM.

With `Cc1nn(CC2CC(C(C)C)=NO2)c2ccc(Nc3n[nH]c4cccnc34)cc12` (stereo not drawn) [Example 120, N-(1-((3-isopropyl-4,5-dihydroisoxazol-5-yl)methyl)-3-methyl-1H-indazol-5-yl)-1H-pyrazolo[4,3-b]pyridin-3-amine], the EC50 worked out at 144 nM. The value for `O=C(O)Cn1nc(Cl)c2cc(Nc3n[nH]c4cccnc34)ccc21` [Example 278, 2-(5-((1H-pyrazolo[4,3-b]pyridin-3-yl)amino)-3-chloro-1H-indazol-1-yl)acetic acid] was 1560 nM; that for `Cn1nc(C(=O)N2CCC(C(N)=O)CC2)c2ccc(Nc3n[nH]c4cccnc34)cc21` [Example 161, 1-[1-methyl-6-(1H-pyrazolo[4,3-b]pyridin-3-ylamino)indazole-3-carbonyl]piperidine-4-carboxamide] was over 10000 nM. The value for `Cn1nc(C2(C)CC2)c2ccc(Nc3n[nH]c4ncccc34)cc21` [Example 30, N-(1-methyl-3-(1-methylcyclopropyl)-1H-indazol-6-yl)-1H-pyrazolo[3,4-b]pyridin-3-amine] was 129 nM; that for `CC1=NOC(Cn2nc(C)c3cc(Nc4n[nH]c5cccnc45)ccc32)C1` (stereo not drawn) [Example 121, N-(3-methyl-1-((3-methyl-4,5-dihydroisoxazol-5-yl)methyl)-1H-indazol-5-yl)-1H-pyrazolo[4,3-b]pyridin-3-amine] was 377 nM; that for `Cc1cncc(-c2nn(C)c3cc(Nc4n[nH]c5cccnc45)ccc23)c1` [Example 178, N-(1-methyl-3-(5-methylpyridin-3-yl)-1H-indazol-6-yl)-1H-pyrazolo[4,3-b]pyridin-3-amine] was 4180 nM. For `Cc1nn(CC(C)C)c2ccc(Nc3n[nH]c4cccnc34)cc12` [Example 112, N-(1-isobutyl-3-methyl-1H-indazol-5-yl)-1H-pyrazolo[4,3-b]pyridin-3-amine], the EC50 was determined as 95 nM. In the case of `Cc1nn(CCC(C)Cl)c2ccc(Nc3n[nH]c4cccnc34)cc12` (stereo not drawn) [Example 134, N-(1-(3-chlorobutyl)-3-methyl-1H-indazol-5-yl)-1H-pyrazolo[4,3-b]pyridin-3-amine], the EC50 was 77 nM.

As to `Cc1nn(C2CCNCC2)c2ccc(Nc3n[nH]c4cccnc34)cc12` [Example 90, N-(3-methyl-1-(piperidin-4-yl)-1H-indazol-5-yl)-1H-pyrazolo[4,3-b]pyridin-3-amine], the concentration for a half-maximal effect (EC50) is over 10000 nM.

As to `Cn1nc(OCC2(C)COC2)c2ccc(Nc3n[nH]c4cccnc34)cc21` [Example 194, N-[1-methyl-3-[(3-methyloxetan-3-yl)methoxy]indazol-6-yl]-1H-pyrazolo[4,3-b]pyridin-3-amine], the EC50 is 146 nM. The value for `[2H]C([2H])([2H])Oc1nn(C)c2cc(Nc3n[nH]c4cccnc34)ccc12` [Example 240, N-(3-(methoxy-d3)-1-methyl-1H-indazol-6-yl)-1H-pyrazolo[4,3-b]pyridin-3-amine] was 294 nM; that for `Cc1nn(C2CCOCC2)c2ncc(Nc3n[nH]c4cccnc34)cc12` [Example 259, 3-methyl-N-(1H-pyrazolo[4,3-b]pyridin-3-yl)-1-tetrahydropyran-4-yl-pyrazolo[3,4-b]pyridin-5-amine] was 3700 nM; that for `Cc1nn(C(C)C)c2cc(Nc3n[nH]c4ccccc34)ccc12` [Example 19, N-(1-isopropyl-3-methyl-1H-indazol-6-yl)-1H-indazol-3-amine] was over 10000 nM.
